Laboratory results taken from patent US9193714B2, “Fluorinated estrogen receptor modulators and uses thereof” (priority 2011, dated 2015).
Read-outs that look alike come from different tables or passages of the source.

Tests used:
[1] = tested on: MCF-7 cells; assay: Breast Cancer Cell Viability Assay (MCF7 Viability Assay); format: cell-based; conditions: for IC50: Homo sapiens, MCF7, 120 h, read-out: MCF7 Viability Assay IC50
Protocol: MCF-7 cells were adjusted to a concentration of 20,000 cells per mL in RPMI containing 10% FBS and 20 mM HEPES. 16 microliters of the cell suspension (320 cells) was added to each well of a 384 well plate, and the cells were incubated overnight to allow the cells to adhere. The following day an eleven point, serial semilog dilution of each compound was added to the cells in 16 μL at a final concentration ranging from 0.3-0.000003 μM. After 5 days' compound exposure, 16 μL of CellTiter-GLo (Promega, Madison Wis.) was added to the cells the relative luminescence units (RLUs) of each well was determined. CellTiter-Glo added to 32 μL of medium without cells was used to obtain a background value. The Percent viability of each sample was determined as follows: (RLU sample-RLU background/RLU untreated cells-RLU background)×100=% viability.

[2] = biological target: T1, ER-α (Homo sapiens, UniProt P03372); assay: Breast Cancer Cell ER-α in Cell Western Assay (SP1); format: cell-based; conditions: MCF7, read-out: ER In-Cell Western Assay (SP1); Max Response
T1 construct: endogenous in cells; host or cells: MCF-7
T1 sequence (P03372 whole entry): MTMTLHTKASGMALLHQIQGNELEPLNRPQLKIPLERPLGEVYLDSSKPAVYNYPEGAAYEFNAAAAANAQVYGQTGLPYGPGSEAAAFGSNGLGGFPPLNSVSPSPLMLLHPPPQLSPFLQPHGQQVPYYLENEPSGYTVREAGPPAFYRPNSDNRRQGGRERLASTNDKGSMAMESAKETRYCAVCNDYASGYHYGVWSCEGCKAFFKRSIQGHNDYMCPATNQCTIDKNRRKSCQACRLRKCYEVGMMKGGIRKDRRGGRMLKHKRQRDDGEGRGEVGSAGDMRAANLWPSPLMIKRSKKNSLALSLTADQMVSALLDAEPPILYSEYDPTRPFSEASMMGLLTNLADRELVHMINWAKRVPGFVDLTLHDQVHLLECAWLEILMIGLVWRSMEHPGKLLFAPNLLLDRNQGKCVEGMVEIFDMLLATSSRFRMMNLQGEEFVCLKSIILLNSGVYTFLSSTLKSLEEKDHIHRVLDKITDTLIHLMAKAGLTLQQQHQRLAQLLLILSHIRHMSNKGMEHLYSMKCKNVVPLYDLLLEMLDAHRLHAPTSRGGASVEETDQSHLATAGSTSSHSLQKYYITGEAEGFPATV
Protocol: MCF-7 cells were adjusted to a concentration of 200,000 cells per mL in RPMI containing 10% charcoal-stripped FBS and 20 mM HEPES. 16 microliters of the cell suspension (3200 cells) was added to each well of a poly-D-lysine 384 well plate, and the cells were incubated overnight to allow the cells to adhere. The following day an eleven point, serial semilog dilution of each compound was added to the cells in 16 μL at a final concentration ranging from 0.3-0.000003 μM. At 4 or 24 hr post compound addition, the cells were fixed (10% formalin in PBS) for 20 minutes. Cells were permeablized in PBS 0.1% Triton and blocked with LICOR blocking buffer (50 μl/well, 90′). The wells were then incubated overnight at 4° C. with SP1 rabbit monoclonal Ab (Thermo Scientific) diluted 1:1000 in LICOR blocking buffer/0.1% Tween-20. Wells which were treated with blocking buffer with Tween but no antibody were used as a background control. Wells were washed with 0.1% Tween-20/PBS and then incubated in goat anti-rabbit IRDye™ 800 CW (LICOR Inc.; 1:1000) and DRAQ5 DNA dye (1:2000 for 2 mM stock) diluted in LICOR blocking buffer containing 0.1% Tween-20 and 0.01% SDS for 60 minutes. Cells were washed (50 μl/well, 5′ each) in 0.1% Tween-20/PBS. Plates were scanned on a LICOR Odyssey infrared imaging system. Integrated intensities in the 800 nm channel and 700 nm channel were measured to determine levels of ER and DNA respectively. Percent ER levels were determined as follows: (Integrated intensity 800 nm sample/integrated intensity 700 nm sample)/(Integrated intensity 800 nm untreated cells/integrated intensity 700 nm untreated cells)×100=% ER levels.

[3] = MCF-7 cells, 5 days' compound exposure, CellTiter-Glo

SMILES	IC50 [1] [nM]	MCF7 Viability Assay Max Response [1, 3]	Emax [2] [%]	IC50 [1, 3] [nM]
CC1=C(c2cccc(O)c2)C(c2ccc(OC[C@H](C)N3CC[C@@H](CF)C3)cc2)Oc2ccc(O)cc21 (stereo partly drawn) [Example 3, 2-(4-((S)-2-((R)-3-(Fluoromethyl)pyrrolidin-1-yl)propoxy)phenyl)-3-(3-hydroxyphenyl)-4-methyl-2H-chromen-6-ol]	< 1	++ (a single % value ≧ 50%)	> 85	–
CC1=C(c2cccc(O)c2)C(c2ccc(OCCN3CCC[C@H]3CF)cc2)Oc2ccc(O)cc21 (stereo partly drawn) [Example 18, 2-(4-(2-((S)-2-(Fluoromethyl)pyrrolidin-1-yl)ethoxy)phenyl)-3-(3-hydroxyphenyl)-4-methyl-2H-chromen-6-ol]	> 1	++ (a single % value ≧ 50%)	60 to 85	–
CC1=C(c2cccc(O)c2)[C@@H](c2ccc(OC[C@H](C)N3CC[C@@H](CF)C3)cc2)Oc2ccc(O)cc21 (single isomer, unassigned) [Example 3a]	> 1	++ (a single % value ≧ 50%)	> 85	–
CC1=C(c2ccc(F)c(O)c2)C(c2ccc(OC[C@H](C)N3CC[C@@H](CF)C3)cc2)Oc2ccc(O)cc21 (stereo partly drawn) [Example 11, 3-(4-Fluoro-3-hydroxyphenyl)-2-(4-((S)-2-((R)-3-(fluoromethyl)pyrrolidin-1-yl)propoxy)phenyl)-4-methyl-2H-chromen-6-ol]	–	++ (a single % value ≧ 50%)	> 85	< 1
CC1=C(c2ccc(Cl)cc2)C(c2ccc(OC[C@H](C)N3CC[C@@H](CF)C3)cc2)Oc2ccc(O)cc21 (stereo partly drawn) [Example 15, 3-(4-Chlorophenyl)-2-(4-((S)-2-((R)-3-(fluoromethyl)pyrrolidin-1-yl)propoxy)phenyl)-4-methyl-2H-chromen-6-ol]	–	++ (a single % value ≧ 50%)	> 85	> 1
CC1=C(c2cc(O)ccc2F)C(c2ccc(OC[C@H](C)N3CC[C@@H](CF)C3)cc2)Oc2ccc(O)cc21 (stereo partly drawn) [Example 14, 3-(2-Fluoro-5-hydroxyphenyl)-2-(4-((S)-2-((R)-3-(fluoromethyl)pyrrolidin-1-yl)propoxy)phenyl)-4-methyl-2H-chromen-6-ol]	–	++ (a single % value ≧ 50%)	> 85	< 1
CC1=C(c2cccc(O)c2)[C@H](c2ccc(OC[C@H](C)N3CC[C@@H](CF)C3)cc2)Oc2ccc(O)cc21 (single isomer, unassigned) [Example 3b]	< 1	++ (a single % value ≧ 50%)	> 85	–
CC1=C(c2ccc(F)cc2)C(c2ccc(OCCN3CC[C@@H](CF)C3)cc2)Oc2ccc(O)cc21 (stereo partly drawn) [Example 26, 2-(4-(2-((R)-3-(Fluoromethyl)pyrrolidin-1-yl)ethoxy)phenyl)-3-(4-fluorophenyl)-4-methyl-2H-chromen-6-ol]	–	++ (a single % value ≧ 50%)	> 85	> 1
CC1=C(c2ccc(O)c(F)c2)C(c2ccc(OCCN3CC[C@@H](CF)C3)cc2)Oc2ccc(O)cc21 (stereo partly drawn) [Example 5, 3-(3-Fluoro-4-hydroxyphenyl)-2-(4-(2-((R)-3-(fluoromethyl)pyrrolidin-1-yl)ethoxy)phenyl)-4-methyl-2H-chromen-6-ol]	–	++ (a single % value ≧ 50%)	> 85	< 1
CC1=C(c2cc(O)c(F)c(F)c2)C(c2ccc(OCCN3CC[C@@H](CF)C3)cc2)Oc2ccc(O)cc21 (stereo partly drawn) [Example 6, 3-(3,4-Difluoro-5-hydroxyphenyl)-2-(4-(2-((R)-3-(fluoromethyl)pyrrolidin-1-yl)ethoxy)phenyl)-4-methyl-2H-chromen-6-ol]	–	++ (a single % value ≧ 50%)	> 85	< 1
CC1=C(c2cccc(O)c2)C(c2ccc(OCCN(C)CCCF)cc2)Oc2ccc(O)cc21 (stereo not shown) [Example 22, 2-(4-(2-((3-Fluoropropyl)(methyl)amino)ethoxy)phenyl)-3-(3-hydroxyphenyl)-4-methyl-2H-chromen-6-ol]	–	+ (a single % value < 50%)	< 60	< 1
CC1=C(c2ccc(F)cc2)C(c2ccc(OC[C@H](C)N3CC[C@@H](CF)C3)cc2)Oc2ccc(O)cc21 (stereo partly shown) [Example 27]	–	++ (a single % value ≧ 50%)	> 85	> 1
CC1=C(c2cc(O)ccc2F)C(c2ccc(OCCN3CC[C@@H](CF)C3)cc2)Oc2ccc(O)cc21 (stereo partly drawn) [Example 7, 3-(2-Fluoro-5-hydroxyphenyl)-2-(4-(2-((R)-3-(fluoromethyl)pyrrolidin-1-yl)ethoxy)phenyl)-4-methyl-2H-chromen-6-ol]	–	++ (a single % value ≧ 50%)	> 85	< 1
CC1=C(c2cc(O)c(F)c(F)c2)C(c2ccc(OC[C@H](C)N3CC[C@@H](CF)C3)cc2)Oc2ccc(O)cc21 (stereo partly drawn) [Example 9, 3-(3,4-Difluoro-5-hydroxyphenyl)-2-(4-((S)-2-((R)-3-(fluoromethyl)pyrrolidin-1-yl)propoxy)phenyl)-4-methyl-2H-chromen-6-ol]	–	++ (a single % value ≧ 50%)	> 85	< 1
CCN(CCCF)CCOc1ccc(C2Oc3ccc(O)cc3C(C)=C2c2cccc(O)c2)cc1 (stereo not shown) [Example 24, 2-(4-(2-(Ethyl(3-fluoropropyl)amino)ethoxy)phenyl)-3-(3-hydroxyphenyl)-4-methyl-2H-chromen-6-ol]	–	++ (a single % value ≧ 50%)	< 60	< 1
CC1=C(c2ccc(O)c(F)c2)C(c2ccc(OC[C@H](C)N3CC[C@@H](CF)C3)cc2)Oc2ccc(O)cc21 (stereo partly drawn) [Example 13, 3-(3-Fluoro-4-hydroxyphenyl)-2-(4-((S)-2-((R)-3-(fluoromethyl)pyrrolidin-1-yl)propoxy)phenyl)-4-methyl-2H-chromen-6-ol]	–	++ (a single % value ≧ 50%)	> 85	< 1
CC1=C(c2cccc(O)c2)C(c2ccc(OCCN3CCC[C@@H](CF)C3)cc2)Oc2ccc(O)cc21 (stereo partly drawn) [Example 20, 2-(4-(2-((R)-3-(Fluoromethyl)piperidin-1-yl)ethoxy)phenyl)-3-(3-hydroxyphenyl)-4-methyl-2H-chromen-6-ol]	–	+ (a single % value < 50%)	< 60	< 1
CC1=C(c2ccc(F)c(O)c2)C(c2ccc(OCCN3CC[C@@H](CF)C3)cc2)Oc2ccc(O)cc21 (stereo partly drawn) [Example 8, 3-(4-Fluoro-3-hydroxyphenyl)-2-(4-(2-((R)-3-(fluoromethyl)pyrrolidin-1-yl)ethoxy)phenyl)-4-methyl-2H-chromen-6-ol]	–	++ (a single % value ≧ 50%)	> 85	> 1
CCN(CCOc1ccc(C2Oc3ccc(O)cc3C(C)=C2c2cccc(O)c2)cc1)CCC(F)(F)F (stereo not shown) [Example 25, 2-(4-(2-(Ethyl(3,3,3-trifluoropropyl)amino)ethoxy)phenyl)-3-(3-hydroxyphenyl)-4-methyl-2H-chromen-6-ol]	–	+ (a single % value < 50%)	< 60	> 1
CC1=C(c2cccc(O)c2)C(c2ccc(OCCN3CCC(CF)CC3)cc2)Oc2ccc(O)cc21 (stereo not shown) [Example 19, 2-(4-(2-(4-(Fluoromethyl)piperidin-1-yl)ethoxy)phenyl)-3-(3-hydroxyphenyl)-4-methyl-2H-chromen-6-ol]	–	–	60 to 85	–
CC1=C(c2cccc(O)c2)C(c2ccc(OCCN3CC[C@@H](CF)C3)cc2)Oc2ccc(O)cc21 (stereo partly drawn) [Example 2, 2-(4-(2-((R)-3-(Fluoromethyl)pyrrolidin-1-yl)ethoxy)phenyl)-3-(3-hydroxyphenyl)-4-methyl-2H-chromen-6-ol]	< 1	++ (a single % value ≧ 50%)	> 85	–
CC1=C(c2cccc(O)c2)C(c2ccc(OCCN3CC(CF)C3)cc2)Oc2ccc(O)cc21 (stereo not shown) [Example 1, 2-(4-(2-(3-(Fluoromethyl)azetidin-1-yl)ethoxy)phenyl)-3-(3-hydroxyphenyl)-4-methyl-2H-chromen-6-ol]	< 1	++ (a single % value ≧ 50%)	> 85	–
